Test: Solid state stability of the drug substance (HPLC assay for final content and degradation products)
Type: physicochemical
Conditions: 1 month, product of Example 1
Procedure: The solid state stability of the drug substance was determined by storing approximately 1.0 g of the material in a glass bottle at i) 40° C./75% Relative Humidity (RH), open exposure, for 1 month and b) at 50° C., closed, for 1 month. The material was assayed by HPLC for final content and degradation products in both cases.

[1] = 40° C./75% Relative Humidity (RH), open exposure

CN(CCOc1ccc(CC2SC(=O)NC2=O)cc1)c1ccccn1.O=C(O)C(O)C(O)C(=O)O (racemic) [DL-Tartrate, 5-[4-[2-(N-methyl-N-(2-pyridyl)amino)ethoxy]benzyl]thiazolidine-2,4-dione DL tartrate]
Solid state stability: HPLC assay [1]: 97 % initial
Solid state stability: degradation observed [1]: No significant degradation observed
Solid state stability: HPLC assay (50° C., closed): 99 % initial
Solid state stability: degradation observed (50° C., closed): No significant degradation observed

Source: patent US20040014790A1, “Tartrate salt of thiazolidinedione derivative” (priority 2000, published 2004)
